Test results from patent US6984649B1, “Pyridine derivatives” (Bayer Aktiengesellschaft, priority 2000, dated 2006).
Counter-ions that a name gives are not always drawn.

These molecules were tested on A549 human lung epithelium cell line (assay: RANTES production in response to TNF-α from A549 cells). Conditions: Homo sapiens, A549, A549 cells, 100 ng/ml TNF-α, read-out: Cellular activity grade (A549) (Cellular IC50).
Format: cell-based
Protocol: [The Measurement of RANTES Production in Response to TNF-α from A549 Cells]
(1) Preparation of A549 Cells
• The A549 human lung epithelium cell line (ATCC […]) was maintained in Dulbecco's modified Eagle's medium (D-MEM, Nikken Biomedical Institute) supplemented with 10% FCS (Gibco), 100 U/ml penicillin, 100 μg/ml streptomycin, and 2 mM glutamine (culture medium). Forty thousand (4×10^4) cells (80 μl/well) were seeded in each well of 96 well flat-bottom tissue culture plate (Falcon #3072). The plate was allowed to stand for 2 hrs, thus the cells were adhered to the bottom of each well. To the each well was added 10 μl vehicle (1% DMSO), serial dilutions of test compounds in 1% DMSO, or 5 nM Dexamethasone in 1% DMSO as a reference. The mixture (90 μl/well) was incubated for 1 hr at 37° C. After 1 hr, 1 μg/ml TNF-α (10 μl) in culture medium was added to the mixture to obtain 100 μl of reaction mixture. The reaction mixture was cultured for 24 hrs to stimulate the cells with 100 ng/ml TNF-α. Cells with vehicle without TNF-α stimulation were also prepared. (2) Measurement of RANTES Production • Then the concentration of RANTES released from the cells in the supernatants of each well was determined using a quantitative sandwich enzyme immunoassay technique. First, 2 μg/ml mouse anti-huRANTES mAb (R&D Systems, #mAb678) in PBS buffer (pH 7.4, 100 μl) was put in each well of 96-well NUNC fluoro plate (Nalge Nunc, New York USA) (Final 200 ng/well) and the plate was allowed to stand for overnight at 4° C. to be coated by the antibody. Each well of the plate was then washed with 350 μl wash buffer (0.05% Tween-20, 0.85% NaCl, and 25 mM Tris/HCl pH7.4) for three times. Blocking buffer containing 1% BSA (Sigma 99% pure, 100 g), 5% sucrose (Nacalai tesque, 99% pure, 500 g), and 0.02% azide (Nacalai tesque, 100%, 500 g) were added (200 μl) to each well and then the plate was allowed to stand for 4 hours to stabilize the coated antibody. Next, 50 μl supernatants of cell culture prepared in (1) above were put in each well of the 96-well NUNC fluoro plate with coated antibody. Recombinant Human RANTES (Pepro Tech, Inc. #300-06) was used as the standard for the determination of RANTES production (linear range between 1 and 10 ng/ml). Eu-labelled mouse anti-huRANES mAb (60 ng/ml: R&D Systems, #mAb278) in PBS supplemented by 1% BSA and 0.05% Tween 20 was added (50 μl) to each well. The reaction mixtures were incubated at room temperature for 4 hrs. After washing with wash buffer (0.05% Tween-20, 0.85% NaCl, and 25 mM Tris/HCl pH7.4, 350 μl/well) for 5 times with the use of a Sera Washer (Bio-Tech, #MW-96R), the enhancement solution (DELFIA, #1244-405, 100 μl/well) was added to each well. The plate was incubated for 10 minutes at room temperature with moderate shaking. Fluorescent intensity was measured using a DELFIA fluorimeter (Wallac). Excitation was performed at 340 nm and emission was measured at 615 nm. [The Measurement of TNF-α Production in Response to LPS from Peripheral Blood Mononuclear Cells (PBMC)] (1) Preparation of PBMC • Human PBMC were prepared by first obtaining blood from healthy donors and isolating the cells from the blood. The isolation was done by Ficoll gradient-centrifugation method using Ficoll Pacque (Pharmacia #17-1440-02). Within three hours from donation, the isolated PBMC was used. After three times washing with PBS, PBMC were resuspended with RPMI 1640 (Nikken BioMedical Institute) supplemented with 10% FCS (Gibco), 100 U/ml penicillin, 100 μg/ml streptomycin, and 2 mM glutamine (culture medium). The cells (1×10^5 in 150 μL/well) were seeded in each well of 96 well flat-bottom tissue culture plate (Falcon #3072). To the each well was added 20 μl vehicle (1% DMSO), serial dilutions of test compounds in 1% DMSO, or 250 nM Dexamethasone in 1% DMSO as a reference. The mixture (170 μl/well) was incubated for 1 hr at 37° C. After 1 hr, 20 ng/ml LPS (30 μl) in culture medium was added to the mixture to obtain 200 μl of reaction mixture. […]

Structure (SMILES) | IC50
Nc1nc(-c2ccccc2O)cc(C2CCCNC2)c1C(=O)O (stereo not shown) [Example 9-2, 2-amino-6-(2-hydroxyphenyl)-4-(3-piperidinyl)nicotinic acid hydrochloride] | 1000 to 10000 nM
CNC(=O)c1c(C2CCCNC2)cc(-c2ccccc2O)nc1N (stereo not shown) [Example 8-2, 2-amino-6-(2-hydroxyphenyl)-N-methyl-4-(3-piperidinyl)nicotinamide hydrochloride] | 1000 to 10000 nM
N#Cc1c(C2CCCNC2)cc(-c2sccc2O)nc1N (stereo not shown) [Example 1-7, 2-amino-6-(3-hydroxy-2-thienyl)-4-(3-piperidinyl)nicotinonitrile hydrobromide] | < 1000 nM
Oc1cccc(OCC2CC2)c1-c1cc(C2CCCNC2)c2c(n1)NCCC2 (stereo not shown) [Example 28-01, 3-(cyclopropylmethoxy)-2-[4-(3-piperidinyl)-5,6,7,8-tetrahydro-1,8-naphthyridin-2-yl]phenol] | < 1000 nM
O=S1(=O)NCc2c(C3CCCNC3)cc(-c3ccccc3O)nc2N1 (stereo not shown) [Example 22-5, 2-[2,2-dioxido-5-(3-piperidinyl)-3,4-dihydro-1H-pyrido[2,3-c][1,2,6]thiadiazin-7-yl]phenol hydrochloride] | 1000 to 10000 nM
Nc1nc(-c2ccccc2O)cc(C2=CCCNC2)c1CO [Example 11-4, 2-[6′-amino-5′-(hydroxymethyl)-1,2,5,6-tetrahydro-3,4′-bipyridin-2′-yl]phenol hydrochloride] | < 1000 nM
Nc1nc(-c2c(O)cccc2OCC2CC2)cc(C2CCNCC2)c1CON1C(=O)CCC1=O [Example 21-4, 1-{[2-amino-6-[2-(cyclopropylmethoxy)-6-hydroxyphenyl]-4-(4-piperidinyl)-3-pyridinyl]methoxy}-2,5-pyrrolidinedione hydrochloride] | < 1000 nM
N#Cc1c(C2CCCN(Cc3ccccc3)C2)cc(-c2c(O)cccc2OCC2CC2)nc1N (stereo not shown) [Example 3-2, 2-amino-4-(1-benzyl-3-piperidinyl)-6-[2-(cyclopropylmethoxy)-6-hydroxyphenyl]nicotinonitrile] | > 10000 nM
N#Cc1c(N2CCCC(N)C2)cc(-c2ccccc2O)nc1N (stereo not shown) [Example 34-3, 2-amino-4-(3-amino-1-piperidinyl)-6-(2-hydroxyphenyl)nicotinonitrile hydrochloride] | 1000 to 10000 nM
N#Cc1c(N2CCOCC2)cc(-c2ccccc2O)nc1N [Example 34-1, 2-amino-6-(2-hydroxyphenyl)-4-(4-morpholinyl)nicotinonitrile] | > 10000 nM
N#Cc1c(N2CCC(C(N)=O)CC2)cc(-c2ccccc2O)nc1N [Example 34-2, 1-[2-amino-3-cyano-6-(2-hydroxyphenyl)-4-pyridinyl]-4-piperidinecarboxamide] | > 10000 nM
Nc1ncnc2nc(-c3c(O)cccc3OCC3CC3)cc(C3CCCNC3)c12 (stereo not shown) [Example 32-1, 2-[4-amino-5-(3-piperidinyl)pyrido[2,3-d]pyrimidin-7-yl]-3-(cyclopropylmethoxy)phenol hydrochloride] | 1000 to 10000 nM
Nc1cc2c(C3CCCNC3)cc(-c3c(O)cccc3OCC3CC3)nc2[nH]c1=O (stereo not shown) [Example 29-01, 3-amino-7-[2-(cyclopropylmethoxy)-6-hydroxyphenyl]-5-(3-piperidinyl)-1,8-naphthyridin-2(1H)-one hydrochloride] | < 1000 nM
Nc1nc(-c2c(O)cccc2F)cc(C2CCCNC2)c1CO (stereo not shown) [Example 11-2, 2-[6-amino-5-(hydroxymethyl)-4-(3-piperidinyl)-2-pyridinyl]-3-fluorophenol hydrochloride] | < 1000 nM
O=c1[nH]c2nc(-c3ccccc3O)cc(C3CCCNC3)c2c(=O)n1-c1ccccc1 (stereo not shown) [Example 7-3, 7-(2-hydroxyphenyl)-3-phenyl-5-(3-piperidinyl)pyrido[2,3-d]pyrimidine-2,4(1H,3H)-dione hydrochloride] | > 10000 nM
CC(=O)c1c(C2CCCNC2)cc(-c2ccccc2O)nc1N (stereo not shown) [Example 15-3, 1-[2-amino-6-(2-hydroxyphenyl)4-(3-piperidinyl)-3-pyridinyl]ethanone hydrochloride] | < 1000 nM
NC(=O)c1c(C2CCCNC2)cc(-c2ccccc2O)nc1N (stereo not shown) [Example 7-1, 2-amino-6-(2-hydroxyphenyl)-4-(3-piperidinyl)nicotinamide hydrochloride] | 1000 to 10000 nM
N#Cc1c(C2CCCNC2)cc(-c2ncccc2O)nc1N (stereo not shown) [Example 1-6, 6-amino-3′-hydroxy-4-(3-piperidinyl)-2,2′-bipyridine-5-carbonitrile hydrochloride] | < 1000 nM
CNc1nc(-c2ccccc2O)cc(C2CCCNC2)c1C#N (stereo not shown) [Example 4-3, 6-(2-hydroxyphenyl)-2-(methylamino)-4-(3-piperidinyl)nicotinonitrile hydrochloride] | > 10000 nM
Nc1nc(-c2c(O)cccc2OCC2CC2)cc(C2CCCNC2)c1CNC(=O)NC1CCCCC1 (stereo not shown) [Example 23-3, N-{[2-amino-6-[2-(cyclopropylmethoxy)-6-hydroxyphenyl]-4-(3-piperidinyl)-3-pyridinyl]methyl}-N′-cyclohexylurea hydrochloride] | < 1000 nM
Cn1c(=O)[nH]c2nc(-c3ccccc3O)cc(C3CCCNC3)c2c1=O (stereo not shown) [Example 10-1, 7-(2-hydroxy-phenyl)-3-methyl-5-piperidin-3-yl-1H-pyrido[2,3-d]pyrimidine-2,4-dione hydrochloride] | 1000 to 10000 nM
Nc1n[nH]c2nc(-c3ccccc3O)cc(C3CCCNC3)c12 (stereo not shown) [Example 5-1, 2-[3-amino-4-(3-piperidinyl)-1H-pyrazolo[3,4-b]pyridin-6-yl]phenol hydrochloride] | 1000 to 10000 nM
Nc1nc(-c2c(O)cccc2OCC2CC2)cc(C2CCCNC2)c1CO (stereo not shown) [Example 12-1, 2-[6-amino-5-(hydroxymethyl)-4-(3-piperidinyl)-2-pyridinyl]-3-(cyclopropylmethoxy)phenol hydrochloride] | < 1000 nM
CC(=O)Nc1nc(-c2c(O)cccc2OCC2CC2)cc(C2CCNCC2)c1C#N [Example 6-2, N-[3-cyano-6-[2-(cyclopropylmethoxy)-6-hydroxyphenyl]-4-(4-piperidinyl)-2-pyridinyl]acetamide hydrochloride] | < 1000 nM
CC(=O)Nc1n[nH]c2nc(-c3ccccc3O)cc(C3CCCNC3)c12 (stereo not shown) [Example 5-2, N-[6-(2-hydroxyphenyl)-4-(3-piperidinyl)-1H-pyrazolo[3,4-b]pyridin-3-yl]acetamide hydrochloride] | > 10000 nM
Oc1ccccc1-c1cc(C2CCCNC2)c2cn[nH]c2n1 (stereo not shown) [Example 16-1, 2-(4-Piperidin-3-yl-1H-pyrazolo[3,4-b]pyridin-6-yl)-phenol hydrochloride] | 1000 to 10000 nM
Nc1nc(-c2c(O)cccc2OCc2ccccc2)cc2c1CN1CCCC2C1 (stereo not shown) [Example 20-1, 2-(6-amino-5,9-diazatricyclo[7.3.1.02,7]trideca-2,4,6-trien-4-yl)-3-(benzyloxy)phenol hydrochloride] | > 10000 nM
Nc1nc(-c2c(O)cccc2OCC2CC2)cc(C2CCNCC2)c1Cn1ccnc1 [Example 21-2, 2-[6-amino-5-(1H-imidazol-1-ylmethyl)-4-(4-piperidinyl)-2-pyridinyl]-3-(cyclopropylmethoxy)phenol hydrochloride] | < 1000 nM
